Data taken from ChEMBL document CHEMBL4477228, “Discovery of 2-((3-cyanopyridin-2-yl)thio)acetamides as human lactate dehydrogenase A inhibitors to reduce the growth of MG-63 osteosarcoma cells: Virtual screening and biological validation” (Bioorg Med Chem Lett, 2016).
pEC50, pIC50: −log10 of the molar value. Calls of active or inactive are those of the source. The calls are words filed in the database; no cut-off is given here.

Legend:
[1] = target: T1, L-lactate dehydrogenase A chain (Homo sapiens, UniProt P00338); assay: Inhibition of human LDHA assessed as conversion of pyruvate to lactate measuring disappearance of NADH after 10 mins by fluorescence assay
[2] = target: T1, L-lactate dehydrogenase A chain; assay: Inhibition of human LDHA in MG63 cells assessed as reduction in lactate formation at 20 uM after 12 hrs; type: cell-based
MG-63 [3] = assay: Cytotoxicity of human MG63 cells assessed as cell growth inhibition after 72 hrs by MTT assay; type: functional, cell-based; conditions: for pEC50: Homo sapiens, MG-63, 72 h, read-out: EC50
MG-63 [4] = assay: Induction of apoptosis in human MG63 cells assessed as late apoptotic cells at 5 uM after 12 hrs by Annexin V-FITC/propidium iodide staining based flow cytometry (reference value: 3.2 %); type: functional
MG-63 [5] = assay: Induction of apoptosis in human MG63 cells assessed as necrotic cells at 10 uM after 12 hrs by Annexin V-FITC/propidium iodide staining based flow cytometry (reference value: 0.5 %); type: functional
MG-63 [6] = assay: Induction of apoptosis in human MG63 cells assessed as necrotic cells at 5 uM after 12 hrs by Annexin V-FITC/propidium iodide staining based flow cytometry (reference value: 0.5 %); type: functional
MG-63 [7] = assay: Induction of apoptosis in human MG63 cells assessed as early apoptotic cells at 2 uM after 12 hrs by Annexin V-FITC/propidium iodide staining based flow cytometry (reference value: 0.4 %); type: functional
MG-63 [8] = assay: Induction of apoptosis in human MG63 cells assessed as early apoptotic cells at 10 uM after 6 hrs by Annexin V-FITC/propidium iodide staining based flow cytometry (reference value: 0.4 %); type: functional
MG-63 [9] = assay: Induction of apoptosis in human MG63 cells assessed as viable cells at 10 uM after 6 hrs by Annexin V-FITC/propidium iodide staining based flow cytometry (reference value: 95.8 %); type: functional; conditions: MG-63, 6 h, read-out: Activity
MG-63 [10] = assay: Induction of apoptosis in human MG63 cells assessed as necrotic cells at 2 uM after 12 hrs by Annexin V-FITC/propidium iodide staining based flow cytometry (reference value: 0.5 %); type: functional
MG-63 [11] = assay: Induction of apoptosis in human MG63 cells assessed as late apoptotic cells at 10 uM after 12 hrs by Annexin V-FITC/propidium iodide staining based flow cytometry (reference value: 3.2 %); type: functional
MG-63 [12] = assay: Induction of apoptosis in human MG63 cells assessed as viable cells at 10 uM after 24 hrs by Annexin V-FITC/propidium iodide staining based flow cytometry (reference value: 95.8 %); type: functional; conditions: MG-63, 24 h, read-out: Activity
MG-63 [13] = assay: Induction of apoptosis in human MG63 cells assessed as late apoptotic cells at 2 uM after 12 hrs by Annexin V-FITC/propidium iodide staining based flow cytometry (reference value: 3.2 %); type: functional
MG-63 [14] = assay: Induction of apoptosis in human MG63 cells assessed as late apoptotic cells at 10 uM after 24 hrs by Annexin V-FITC/propidium iodide staining based flow cytometry (reference value: 3.2 %); type: functional
MG-63 [15] = assay: Induction of apoptosis in human MG63 cells assessed as early apoptotic cells at 10 uM after 24 hrs by Annexin V-FITC/propidium iodide staining based flow cytometry (reference value: 0.4 %); type: functional
MG-63 [16] = assay: Induction of apoptosis in human MG63 cells after 12 hrs by Annexin V-FITC/propidium iodide staining based flow cytometry; type: functional, cell-based
MG-63 [17] = assay: Induction of apoptosis in human MG63 cells assessed as necrotic cells at 10 uM after 6 hrs by Annexin V-FITC/propidium iodide staining based flow cytometry (reference value: 0.5 %); type: functional
MG-63 [18] = assay: Induction of apoptosis in human MG63 cells assessed as viable cells at 2 uM after 12 hrs by Annexin V-FITC/propidium iodide staining based flow cytometry (reference value: 95.8 %); type: functional; conditions: MG-63, 12 h, read-out: Activity
MG-63 [19] = assay: Induction of apoptosis in human MG63 cells assessed as early apoptotic cells at 5 uM after 12 hrs by Annexin V-FITC/propidium iodide staining based flow cytometry (reference value: 0.4 %); type: functional
[20] = target: T1, L-lactate dehydrogenase A chain; assay: Inhibition of human LDHA in MG63 cells assessed as reduction in lactate formation after 12 hrs; type: cell-based
MG-63 [21] = assay: Induction of apoptosis in human MG63 cells assessed as late apoptotic cells at 10 uM after 6 hrs by Annexin V-FITC/propidium iodide staining based flow cytometry (reference value: 3.2 %); type: functional
MG-63 [22] = assay: Induction of apoptosis in human MG63 cells assessed as early apoptotic cells at 10 uM after 12 hrs by Annexin V-FITC/propidium iodide staining based flow cytometry (reference value: 0.4 %); type: functional
MG-63 [23] = assay: Induction of apoptosis in human MG63 cells at 10 uM by Annexin V-FITC/propidium iodide staining based flow cytometry; type: functional, cell-based; conditions: TDE = time-dependent effect
MG-63 [24] = assay: Induction of apoptosis in human MG63 cells assessed as necrotic cells at 10 uM after 24 hrs by Annexin V-FITC/propidium iodide staining based flow cytometry (reference value: 0.5 %); type: functional
MG-63 [25] = assay: Induction of apoptosis in human MG63 cells assessed as viable cells at 5 uM after 12 hrs by Annexin V-FITC/propidium iodide staining based flow cytometry (reference value: 95.8 %); type: functional; conditions: MG-63, 12 h, read-out: Activity
MG-63 [26] = assay: Induction of apoptosis in human MG63 cells assessed as viable cells at 10 uM after 12 hrs by Annexin V-FITC/propidium iodide staining based flow cytometry (reference value: 95.8 %); type: functional; conditions: MG-63, 12 h, read-out: Activity

SMILES: COc1ncc(-c2ccc3c(Nc4cccc(C(=O)O)c4)c(S(N)(=O)=O)cnc3c2)c(OC)n1
- pIC50 [1]: 5.13
- inhibition [2]: Active
- pEC50 (MG-63 [3]): 4.55

SMILES: COc1ccc(-c2cc(-c3ccccc3)c(C#N)c(SCC(=O)Nc3cc(C)cc(C)c3)n2)cc1
- pIC50 [1]: 5.18
- pEC50 (MG-63 [3]): 5.24

SMILES: CCc1ccccc1NC(=O)CSc1nc(-c2ccc(OC)cc2)cc(-c2ccc(OC)cc2)c1C#N
- Activity (MG-63 [4]): 10.3%
- Activity (MG-63 [5]): 0.4%
- Activity (MG-63 [6]): 0.8%
- pIC50 [1]: 5.91
- Activity (MG-63 [7]): 2%
- Activity (MG-63 [8]): 5%
- viability at 10 µM (MG-63 [9]): 86.1%
- Activity (MG-63 [10]): 0.4%
- Activity (MG-63 [11]): 14.1%
- viability at 10 µM (MG-63 [12]): 73.1%
- Activity (MG-63 [13]): 6.5%
- Activity (MG-63 [14]): 23.5%
- Activity (MG-63 [15]): 3.1%
- Activity (MG-63 [16]): Dose-dependent effect
- Activity (MG-63 [17]): 0.8%
- viability at 2 µM (MG-63 [18]): 91%
- Activity (MG-63 [19]): 0.7%
- inhibition [20]: Dose-dependent effect
- Activity (MG-63 [21]): 8.1%
- Activity (MG-63 [22]): 2.8%
- pEC50 (MG-63 [3]): 6.01
- Activity (MG-63 [23]): Tde
- Activity (MG-63 [24]): 0.3%
- viability at 5 µM (MG-63 [25]): 88.2%
- viability at 10 µM (MG-63 [26]): 82.7%

SMILES: Cc1ccc(-c2cc(-c3ccc(F)cc3)nc(SCC(=O)Nc3cccc(C)c3)c2C#N)cc1
- pIC50 [1]: 5.47
- pEC50 (MG-63 [3]): 5.17

SMILES: COc1ccc(-c2cc(-c3ccc(OC)cc3)c(C#N)c(SCC(=O)Nc3ccc(C)c(C)c3)n2)cc1
- pIC50 [1]: < 4.00
- EC50 (MG-63 [3]; mg-63): Not Active

SMILES: COc1ccc(-c2cc(-c3ccc(OC)cc3)c(C#N)c(SCC(=O)Nc3c(C)cccc3C)n2)cc1
- pIC50 [1]: 4.65
- pEC50 (MG-63 [3]): 4.45
